Measurements published in the NIST ThermoML archive (doi:10.1007/s10765-015-1980-6).

Assay: xn = mol fraction of the nth substance listed
Conditions: 101 kPa, Liquid; for speed of sound: Frequency=2 MHz; for mass density: Pycnometric method

OCCOCCO [diethylene glycol] + CCC(C)O
speed of sound [m/s], Linear variable-path acoustic interferometer
Conditions | x1 = 0.1097 | x1 = 0.2096 | x1 = 0.2951 | x1 = 0.3876 | x1 = 0.512 | x1 = 0.592 | x1 = 0.6771 | x1 = 0.7984 | x1 = 0.8962 | x1 = 1
298.15 K | 1243.1 | 1273.6 | 1300.5 | 1330.6 | 1372 | 1400 | 1431.4 | 1480.5 | 1525.1 | 1579.3
303.15 K | 1225.2 | 1256.7 | 1283.5 | 1313.5 | 1356.2 | 1386.1 | 1418.2 | 1468.2 | 1513.4 | 1568
308.15 K | 1207.6 | 1239.8 | 1266 | 1296 | 1339.4 | 1370.1 | 1403 | 1454.1 | 1501.7 | 1557.3
313.15 K | 1190.1 | 1222.7 | 1249.1 | 1279.3 | 1323.4 | 1354.9 | 1389.2 | 1441.2 | 1490 | 1546.1

mass density [kg/m3]
Conditions | x1 = 0.1097 | x1 = 0.2096 | x1 = 0.2951 | x1 = 0.3876 | x1 = 0.512 | x1 = 0.592 | x1 = 0.6771 | x1 = 0.7984 | x1 = 0.8962 | x1 = 1
298.15 K | 838.7 | 871.6 | 899.5 | 929.3 | 968.6 | 993.4 | 1019.2 | 1055.1 | 1083.2 | 1112.7
303.15 K | 834.7 | 867.7 | 895.7 | 925.5 | 964.9 | 989.8 | 1015.8 | 1051.8 | 1079.9 | 1109.3
308.15 K | 830.7 | 863.9 | 891.9 | 921.8 | 961.2 | 986.2 | 1012.3 | 1048.4 | 1076.6 | 1105.9
313.15 K | 826.8 | 860.1 | 888.1 | 918 | 957.6 | 982.6 | 1008.9 | 1045.1 | 1073.3 | 1102.5

OCCCCO [1,4-butanediol] + OCCOCCO
speed of sound [m/s], Linear variable-path acoustic interferometer
Conditions | x2 = 0 | x2 = 0.108 | x2 = 0.1977 | x2 = 0.2897 | x2 = 0.4096 | x2 = 0.509 | x2 = 0.6116 | x2 = 0.6912 | x2 = 0.7992 | x2 = 0.8838
298.15 K | 1601.6 | 1568.1 | 1549.9 | 1543.5 | 1546.2 | 1552.2 | 1558.9 | 1564.5 | 1571.3 | 1575.3
303.15 K | 1589.3 | 1558.9 | 1542 | 1535.7 | 1538.6 | 1544 | 1550.2 | 1555.3 | 1561.2 | 1564.6
308.15 K | 1577.7 | 1549.8 | 1534.4 | 1528.2 | 1531.1 | 1536.3 | 1541.8 | 1546.4 | 1551.7 | 1554.7
313.15 K | 1565.6 | 1540.6 | 1526.6 | 1520.3 | 1523.2 | 1528.1 | 1533.1 | 1537.2 | 1541.7 | 1544.4

mass density [kg/m3]
Conditions | x2 = 0 | x2 = 0.108 | x2 = 0.1977 | x2 = 0.2897 | x2 = 0.4096 | x2 = 0.509 | x2 = 0.6116 | x2 = 0.6912 | x2 = 0.7992 | x2 = 0.8838
298.15 K | 1012.6 | 1019.9 | 1026.6 | 1035 | 1047 | 1057.6 | 1069.4 | 1078.5 | 1090.6 | 1100
303.15 K | 1009.6 | 1017.1 | 1024 | 1032.3 | 1044.3 | 1054.9 | 1066.5 | 1075.6 | 1087.6 | 1096.8
308.15 K | 1006.7 | 1014.4 | 1021.4 | 1029.6 | 1041.6 | 1052.1 | 1063.7 | 1072.6 | 1084.5 | 1093.6
313.15 K | 1003.7 | 1011.7 | 1018.7 | 1027 | 1038.9 | 1049.4 | 1060.8 | 1069.6 | 1081.3 | 1090.3

OCCOCCO [diethylene glycol] + CCCCO
Conditions | mass density, 298.15 K [kg/m3] | mass density, 303.15 K [kg/m3] | mass density, 308.15 K [kg/m3] | mass density, 313.15 K [kg/m3] | speed of sound, 298.15 K [m/s] | speed of sound, 303.15 K [m/s] | speed of sound, 308.15 K [m/s] | speed of sound, 313.15 K [m/s]
x1 = 0.1095 | 840.7 | 837 | 833.4 | 829.7 | 1265.9 | 1249.5 | 1232.3 | 1215.9
x1 = 0.2096 | 872.6 | 868.9 | 865.3 | 861.6 | 1294 | 1277.8 | 1261.3 | 1245.8
x1 = 0.2955 | 899.7 | 896.1 | 892.4 | 888.8 | 1320.9 | 1305.3 | 1289 | 1273.5
x1 = 0.3874 | 928.5 | 924.9 | 921.2 | 917.6 | 1350.8 | 1335.3 | 1318.7 | 1303.2
x1 = 0.5122 | 967.1 | 963.5 | 959.9 | 956.3 | 1392.3 | 1377.7 | 1361.9 | 1347.4
x1 = 0.592 | 991.5 | 988 | 984.4 | 980.9 | 1419.3 | 1406 | 1391.6 | 1378
x1 = 0.677 | 1017.3 | 1013.7 | 1010.2 | 1006.7 | 1448.9 | 1436.8 | 1424.2 | 1411.6
x1 = 0.7986 | 1053.5 | 1050.1 | 1046.6 | 1043.1 | 1492.7 | 1481.1 | 1470.1 | 1459.2
x1 = 0.896 | 1082.3 | 1078.8 | 1075.4 | 1072 | 1531.3 | 1520.6 | 1510 | 1500
x1 = 1 | 1112.7 | 1109.3 | 1105.9 | 1102.5 | 1579.3 | 1568 | 1557.3 | 1546.1
